Results on eight compounds are retold here after ChEMBL document CHEMBL1131496, “Excitatory amino acid receptor ligands: resolution, absolute stereochemistry, and enantiopharmacology of 2-amino-3-(4-butyl-3-hydroxyisoxazol-5-yl)propionic acid” (J Med Chem, 1998).

A short description of assay [1]: In vitro binding affinity against Metabotropic glutamate receptor using [3H](S)-glutamic acid. Further details: species or system Mus musculus.
Assay [2] relates to Mus musculus. Briefly: In vivo convulsant activity were tested in mice after subcutaneous administration. Particulars: sc. The assay is classed as functional.
The species entered for another assay is Rattus norvegicus. Briefly: Compound was tested for electrophysiological experiments using rat cortical wedge preparation. The assay is classed as functional.
Assay [3] concerns the target Glutamate receptor ionotropic, AMPA (Mus musculus, UniProt P23818+P23819+Q9Z2W8+Q9Z2W9).
Description: Compound was tested for in vitro binding affinity against Ionotropic glutamate receptor AMPA using [3H]AMPA ligand
In assay [4] the test system is Mus musculus. Briefly: In vivo convulsant activity were tested in mice after intravenous administration.

Molecules are shown by their SMILES.

In general, IC50 refers to the concentration that inhibits the measured activity by half. Low values mean inhibition by little substance, high ones a need for much substance. Usually ED50 stands for the dose at which the effect has come halfway, by size or by number of responders. A lower ED50 goes with an effect at a small dose. As a reminder, the EC50 is the concentration giving half of the maximal effect. Consider `CCCCc1c(O)noc1CC(N)C(=O)O` (stereo unspecified), for which the IC50 came to 0.63 µM in assay [1] and 1.8 µM in assay [3]. Further, the values for the ED50 in the assay on Mus musculus [2] and in the assay on Mus musculus [4] were 110 µmol/kg and 94 µmol/kg, respectively. In the assay listed under Rattus norvegicus, this compound showed a half-maximal effective concentration (EC50) of 37 µM.

Regarding `CCCCc1c(O)noc1C[C@@H](N)C(=O)O`, the values for the IC50 in assay [1] and in assay [3] were 0.57 µM and above 1000 µM, respectively. Moreover, the concentration for a half-maximal effect (EC50) in the assay listed under Rattus norvegicus is above 1000 µM. The compound also registered a 50% effective dose (ED50) with Mus musculus [4] above 350 µmol/kg.

Regarding `CCCCc1c(O)noc1C[C@H](N)C(=O)O`, the IC50 was 0.64 µM in assay [1] and 0.48 µM in assay [3]. The compound also showed a half-maximal effective concentration (EC50) in the assay listed under Rattus norvegicus of 17 µM. In the assay with Mus musculus [4], this compound gave an ED50 of 44 µmol/kg.

In the case of `N[C@@H](Cc1onc(O)c1Br)C(=O)O`, the IC50 stood at 0.22 µM in assay [1] and 0.34 µM in assay [3]. Further, the response in the assay listed under Rattus norvegicus was half-maximal at 21 µM (EC50).

Regarding `N[C@H](Cc1onc(O)c1Br)C(=O)O`, the IC50 is 0.15 µM in assay [1] and 32 µM in assay [3]. In the assay filed under Rattus norvegicus, this compound had an EC50 above 1000 µM.

For the compound `NC(Cc1onc(O)c1Br)C(=O)O` (stereo unspecified), the half-inhibitory concentration (IC50) is 0.2 µM in assay [1] and 0.6 µM in assay [3]. In the assay listed under Rattus norvegicus, this compound yielded a concentration for a half-maximal effect (EC50) of 23 µM.

Turning to `Cc1onc(O)c1CC(N)C(=O)O` [(R,S)-AMPA], the concentration for half-maximal inhibition (IC50) in assay [1] was above 100 µM. Moreover, in the assay with Mus musculus [4], the 50% effect level (ED50) was put at a dose of 55 µmol/kg.

In assay [1], `N[C@@H](Cn1oc(=O)[nH]c1=O)C(=O)O` [QUISQUALATE] yielded a half-maximal inhibitory concentration (IC50) of 0.025 µM. The compound also showed an EC50 in the assay filed under Rattus norvegicus of 7.3 µM.
